Literature values as cited in US20160378912A1, “STRUCTURE-BASED MODELING AND TARGET-SELECTIVITY PREDICTION” (EPIGENETX, LLC, priority 2013, published 2016).

Assays:
HDAC1 = HDAC1 (Homo sapiens, UniProt Q13547); conditions: cited from earlier work
HDAC3 = HDAC3 (Homo sapiens, UniProt O15379); conditions: cited from earlier work
HDAC4 = HDAC4 (Homo sapiens, UniProt P56524); conditions: cited from earlier work
HDAC5 = HDAC5 (Homo sapiens, UniProt Q9UQL6); conditions: against HDAC5; cited from earlier work
HDAC7 = biological target: T1, HDAC7 (Homo sapiens, UniProt Q8WUI4); conditions: cited from earlier work
T1 sequence (Q8WUI4 1-952): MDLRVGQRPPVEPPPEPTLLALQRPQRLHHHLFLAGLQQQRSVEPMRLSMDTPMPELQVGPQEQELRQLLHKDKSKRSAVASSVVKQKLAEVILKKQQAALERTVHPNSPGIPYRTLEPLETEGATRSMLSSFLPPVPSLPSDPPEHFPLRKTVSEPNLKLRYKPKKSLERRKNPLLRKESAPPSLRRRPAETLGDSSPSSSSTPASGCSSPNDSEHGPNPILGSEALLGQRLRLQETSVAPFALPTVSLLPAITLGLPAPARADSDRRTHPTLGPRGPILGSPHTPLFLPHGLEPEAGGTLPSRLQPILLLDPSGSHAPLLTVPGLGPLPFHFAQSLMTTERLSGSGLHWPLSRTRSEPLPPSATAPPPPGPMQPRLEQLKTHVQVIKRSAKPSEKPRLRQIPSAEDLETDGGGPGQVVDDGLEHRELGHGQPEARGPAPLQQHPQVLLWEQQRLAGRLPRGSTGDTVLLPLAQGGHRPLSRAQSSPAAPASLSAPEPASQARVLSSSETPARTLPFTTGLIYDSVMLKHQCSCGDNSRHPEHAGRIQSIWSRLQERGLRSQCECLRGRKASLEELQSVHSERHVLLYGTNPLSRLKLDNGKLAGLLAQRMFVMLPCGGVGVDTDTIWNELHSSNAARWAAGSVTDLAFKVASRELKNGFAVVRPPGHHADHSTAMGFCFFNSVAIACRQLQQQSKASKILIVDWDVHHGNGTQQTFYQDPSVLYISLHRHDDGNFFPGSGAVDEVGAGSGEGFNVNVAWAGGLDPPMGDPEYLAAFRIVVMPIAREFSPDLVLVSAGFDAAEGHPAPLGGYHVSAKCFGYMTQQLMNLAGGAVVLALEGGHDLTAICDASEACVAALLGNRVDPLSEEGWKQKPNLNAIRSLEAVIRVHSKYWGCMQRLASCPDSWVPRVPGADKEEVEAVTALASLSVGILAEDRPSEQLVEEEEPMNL

HDAC8 = biological target: T2, HDAC8 (Homo sapiens, UniProt Q9BY41); conditions: cited from earlier work
T2 sequence (Q9BY41 1-377): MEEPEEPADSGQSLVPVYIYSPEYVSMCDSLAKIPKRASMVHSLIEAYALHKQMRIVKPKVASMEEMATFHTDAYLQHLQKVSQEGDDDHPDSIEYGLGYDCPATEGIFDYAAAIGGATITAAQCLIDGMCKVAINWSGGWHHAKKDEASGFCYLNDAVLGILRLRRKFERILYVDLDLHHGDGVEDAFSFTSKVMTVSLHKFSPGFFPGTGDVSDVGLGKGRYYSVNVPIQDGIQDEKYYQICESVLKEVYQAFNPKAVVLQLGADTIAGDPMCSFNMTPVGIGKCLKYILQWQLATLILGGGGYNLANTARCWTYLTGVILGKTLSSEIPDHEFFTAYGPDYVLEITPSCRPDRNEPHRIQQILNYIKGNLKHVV

HDAC10 = biological target: T3, HDAC10 (Homo sapiens, UniProt Q969S8); conditions: cited from earlier work
T3 sequence (Q969S8 1-669): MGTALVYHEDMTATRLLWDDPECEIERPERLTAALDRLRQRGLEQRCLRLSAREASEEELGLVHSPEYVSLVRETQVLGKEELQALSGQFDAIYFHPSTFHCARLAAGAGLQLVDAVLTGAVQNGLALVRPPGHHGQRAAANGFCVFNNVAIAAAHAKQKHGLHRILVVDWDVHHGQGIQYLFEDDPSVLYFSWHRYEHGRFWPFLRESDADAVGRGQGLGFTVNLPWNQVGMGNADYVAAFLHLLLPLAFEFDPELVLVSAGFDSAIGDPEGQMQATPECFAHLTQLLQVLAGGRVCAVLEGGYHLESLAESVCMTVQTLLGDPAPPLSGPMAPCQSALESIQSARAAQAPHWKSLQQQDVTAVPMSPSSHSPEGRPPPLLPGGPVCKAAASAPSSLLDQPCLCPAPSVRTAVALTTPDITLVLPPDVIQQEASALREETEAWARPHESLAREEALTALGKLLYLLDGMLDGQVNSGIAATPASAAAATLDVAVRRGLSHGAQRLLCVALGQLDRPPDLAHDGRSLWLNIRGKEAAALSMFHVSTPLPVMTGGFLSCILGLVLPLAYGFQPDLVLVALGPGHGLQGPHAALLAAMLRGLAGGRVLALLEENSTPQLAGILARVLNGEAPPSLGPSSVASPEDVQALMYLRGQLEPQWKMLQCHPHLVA

[1] = experimental value of modeled complex
[2] = training set, read-out: HDACs inhibitory activities IC50

HDAC1, sequence (Q13547 whole entry): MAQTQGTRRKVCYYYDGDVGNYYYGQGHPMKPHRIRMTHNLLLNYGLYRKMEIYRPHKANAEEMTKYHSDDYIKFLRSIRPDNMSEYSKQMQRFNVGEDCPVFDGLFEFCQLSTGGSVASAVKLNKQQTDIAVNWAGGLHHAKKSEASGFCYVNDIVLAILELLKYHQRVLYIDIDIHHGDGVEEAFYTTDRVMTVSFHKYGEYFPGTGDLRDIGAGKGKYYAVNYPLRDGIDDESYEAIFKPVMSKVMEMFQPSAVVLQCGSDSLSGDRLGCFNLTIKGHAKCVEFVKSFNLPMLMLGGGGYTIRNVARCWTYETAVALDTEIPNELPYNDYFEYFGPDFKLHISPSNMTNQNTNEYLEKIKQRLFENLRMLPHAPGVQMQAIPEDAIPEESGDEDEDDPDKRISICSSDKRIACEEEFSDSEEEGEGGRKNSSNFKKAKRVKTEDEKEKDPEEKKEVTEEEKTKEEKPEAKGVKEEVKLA
HDAC3, sequence (O15379 whole entry): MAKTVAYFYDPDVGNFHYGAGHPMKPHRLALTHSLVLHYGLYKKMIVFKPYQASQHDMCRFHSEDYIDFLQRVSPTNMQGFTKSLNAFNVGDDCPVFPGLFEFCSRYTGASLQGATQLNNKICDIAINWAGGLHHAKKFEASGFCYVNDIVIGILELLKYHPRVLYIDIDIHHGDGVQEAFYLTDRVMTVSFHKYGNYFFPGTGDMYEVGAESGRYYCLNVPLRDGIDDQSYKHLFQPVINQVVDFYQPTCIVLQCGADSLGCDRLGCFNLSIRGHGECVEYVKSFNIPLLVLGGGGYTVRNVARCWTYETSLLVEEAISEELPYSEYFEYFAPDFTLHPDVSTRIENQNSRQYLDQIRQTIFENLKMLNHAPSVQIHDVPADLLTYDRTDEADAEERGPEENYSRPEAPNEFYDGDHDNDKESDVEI
HDAC3, sequence (Q9Y618 395-489 partner limits assumed): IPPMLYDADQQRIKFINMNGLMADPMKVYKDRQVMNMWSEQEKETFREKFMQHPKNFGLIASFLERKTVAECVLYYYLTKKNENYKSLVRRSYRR
HDAC4, sequence (P56524 whole entry): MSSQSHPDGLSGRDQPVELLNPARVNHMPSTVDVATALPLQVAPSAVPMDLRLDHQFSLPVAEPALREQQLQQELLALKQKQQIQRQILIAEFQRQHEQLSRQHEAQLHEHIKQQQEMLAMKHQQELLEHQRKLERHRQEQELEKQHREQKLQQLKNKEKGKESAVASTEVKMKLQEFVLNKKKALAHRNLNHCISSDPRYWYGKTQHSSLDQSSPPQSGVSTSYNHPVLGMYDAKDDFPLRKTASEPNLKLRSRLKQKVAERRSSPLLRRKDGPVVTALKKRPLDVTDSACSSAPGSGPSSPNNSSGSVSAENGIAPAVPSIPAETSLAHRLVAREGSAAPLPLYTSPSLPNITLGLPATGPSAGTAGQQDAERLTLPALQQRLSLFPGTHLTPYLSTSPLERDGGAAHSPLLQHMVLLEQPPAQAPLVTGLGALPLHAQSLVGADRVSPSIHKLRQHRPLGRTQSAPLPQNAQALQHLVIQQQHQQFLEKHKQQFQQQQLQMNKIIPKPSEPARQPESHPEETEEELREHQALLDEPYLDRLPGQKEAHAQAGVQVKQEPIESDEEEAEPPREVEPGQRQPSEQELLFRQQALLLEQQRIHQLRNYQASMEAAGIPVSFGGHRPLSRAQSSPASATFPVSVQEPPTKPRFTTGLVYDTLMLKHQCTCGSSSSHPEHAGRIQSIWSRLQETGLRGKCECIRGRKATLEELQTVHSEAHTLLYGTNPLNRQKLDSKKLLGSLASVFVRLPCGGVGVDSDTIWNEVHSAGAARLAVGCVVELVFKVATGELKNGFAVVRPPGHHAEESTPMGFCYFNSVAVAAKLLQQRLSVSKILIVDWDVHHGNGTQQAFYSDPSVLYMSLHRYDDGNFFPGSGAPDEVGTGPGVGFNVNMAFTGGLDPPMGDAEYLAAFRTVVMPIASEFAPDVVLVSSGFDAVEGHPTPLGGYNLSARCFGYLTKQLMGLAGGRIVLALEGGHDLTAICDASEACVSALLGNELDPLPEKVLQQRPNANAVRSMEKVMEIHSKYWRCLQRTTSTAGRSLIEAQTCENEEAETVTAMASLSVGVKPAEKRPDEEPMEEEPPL
HDAC5, sequence (Q9UQL6 whole entry): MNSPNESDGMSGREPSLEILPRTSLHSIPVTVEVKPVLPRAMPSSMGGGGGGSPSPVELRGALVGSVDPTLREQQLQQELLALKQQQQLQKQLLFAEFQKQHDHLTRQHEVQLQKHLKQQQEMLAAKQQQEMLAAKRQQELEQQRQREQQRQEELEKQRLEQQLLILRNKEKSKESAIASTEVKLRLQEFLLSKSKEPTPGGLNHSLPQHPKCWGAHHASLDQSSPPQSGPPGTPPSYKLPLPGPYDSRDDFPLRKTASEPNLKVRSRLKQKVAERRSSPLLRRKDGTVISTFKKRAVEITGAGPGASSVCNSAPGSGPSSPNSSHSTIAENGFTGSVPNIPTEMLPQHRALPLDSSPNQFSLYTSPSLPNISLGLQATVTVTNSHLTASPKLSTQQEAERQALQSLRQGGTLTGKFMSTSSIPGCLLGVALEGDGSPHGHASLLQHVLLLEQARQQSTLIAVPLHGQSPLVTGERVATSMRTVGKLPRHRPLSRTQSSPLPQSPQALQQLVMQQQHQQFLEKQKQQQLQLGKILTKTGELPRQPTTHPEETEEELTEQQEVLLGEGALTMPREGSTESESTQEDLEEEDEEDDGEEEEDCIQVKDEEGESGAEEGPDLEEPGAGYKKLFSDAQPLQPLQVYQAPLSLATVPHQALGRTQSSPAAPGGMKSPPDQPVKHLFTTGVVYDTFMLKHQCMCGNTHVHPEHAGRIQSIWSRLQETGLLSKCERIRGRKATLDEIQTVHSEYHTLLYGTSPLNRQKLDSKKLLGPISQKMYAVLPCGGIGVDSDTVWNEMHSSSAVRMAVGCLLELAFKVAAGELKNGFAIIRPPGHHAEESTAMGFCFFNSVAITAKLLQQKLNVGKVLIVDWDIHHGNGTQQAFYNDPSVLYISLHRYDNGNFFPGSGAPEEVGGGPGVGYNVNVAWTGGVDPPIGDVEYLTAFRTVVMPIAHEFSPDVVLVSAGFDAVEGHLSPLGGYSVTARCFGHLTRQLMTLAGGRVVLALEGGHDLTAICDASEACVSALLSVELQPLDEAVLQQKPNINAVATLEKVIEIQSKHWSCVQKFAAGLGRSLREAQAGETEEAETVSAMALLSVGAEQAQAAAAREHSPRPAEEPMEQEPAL

Compound: CCCC(=O)O [NABUT, Butyrate]
- pIC50exp (HDAC1; [1]): 3.496
- pIC50 (HDAC1; training set composition): 3.50
- IC50 (HDAC1; [2]): 319 µM
- pIC50exp (HDAC3; [1]): 4.648
- pIC50 (HDAC3; training set composition): 4.65
- IC50 (HDAC3; [2]): 22.5 µM
- pIC50 (HDAC4; training set composition): 4.52
- IC50 (HDAC4; [2]): 30 µM
- pIC50 (lower end of training set activity range) (HDAC5): 2.7
- pIC50 (HDAC7; training set composition): 4.52
- IC50 (HDAC7; [2]): 30 µM
- pIC50 (HDAC8; training set composition): 4.07
- IC50 (HDAC8; [2]): 85.6 µM
- pIC50exp (HDAC10; [1]): 3.535
- pIC50 (HDAC10; training set composition): 3.54
- IC50 (HDAC10; [2]): 292 µM
